Reference: patent US9169295B2, “Macrocycles and macrocycle stabilized peptides” (Bristol-Myers Squibb Company, priority 2010, dated 2015)
Like-named read-outs stand apart in the source and are kept apart here.

Assays:
[1] = other bond
[2] = far-UV circular dichroism (CD) spectra with secondary structure estimated by deconvolution (α-helicity of MSP vs linear peptide); type: physicochemical; settings: 25° C.
Experimental: To examine the α-helicity of the macrocycle stabilized peptides prepared according to the methods of the present invention, the far-UV circular dichrosim (CD) spectra of linear and macrocyclic peptides were measured and compared. Linear peptide of Example 93 and MSP of Example 93 as dry powder were prepared. A sample of each was weighed into a fresh 20 mL glass vial, and dissolved in anhydrous methanol (B&J), with vortexing for ˜1 min, to yield solutions with concentrations of 200 μM. The concentrations were based on the observed mass of peptide and the respective formula weights. The solutions were transferred to 1.8 mL polypropylene tubes, and centrifuged in a table top microcentrifuge for 5 min at rt and 14,000 rpm to pellet any insoluble material. The supernatants were transferred to clean 1.8 mL tubes for preparing final samples for analysis by circular dichroism (CD). Two sets of samples were prepared, one in 100% methanol at 200 μM peptide, the other in 50% aqueous methanol at 100 μM peptide prepared by adding an equal volume of ddH2O to stock methanol solutions.
Samples were transferred to clean 1 mm quartz cuvettes and CD analysis performed in a JASCO J=815 instrument, and temperature maintained at 25° C. Each peptide sample was scanned from 200-450 nm, using a bandwidth of 1.00 nm, standard sensitivity, data pitch of 0.1 nm, digital integration time of 4.0 sec, a scan speed of 20 nm/min, and 6 acquisitions averaged per sample. Blank solvent samples (100% methanol and 50% aqueous methanol) were recorded simultaneously and subtracted from the peptide spectra prior to final analysis. For calculation of mean residue molar ellipticity (Θ^MRW), the peptide concentration was multiplied by 12 to reflect the number of peptide residues in each molecule. Following blank corrections, the CD data for each peptide in each solvent was corrected for total mean residue ellipticity, and the secondary structure composition estimated by deconvolution using CDPRO module within the JASCO software. Three different algorithms were used for convolution (SELCON, CDSSTR and CONTIN), using the data obtained from 200-240 nm and a 56 protein reference data set. Each algorithm yielded similar distribution of secondary structure elements, and the final results reported as the mean and standard deviation from the three deconvolutions.
The deconvolution algorithms yield secondary structural elements of two types of α-helical structure, two types of […] structure, β-turn structure, and unstructured or random structure. The results reflect the average of summed α-helical forms, summed β-strand forms, the β-turn and unstructured forms from the three algorithms for the peptides in 100% methanol. The overlaid spectra illustrate the difference in signal in the far uv-region (200-240 nm) for the two related peptides in 100% methanol.

[3] = the molecule shown is the open-chain precursor; other bond; 16-membered ring; TfOH; MeNO2; 13.4 mM; 25.0 °C
[4] = 50% aqueous methanol, 100 μM peptide
[5] = 100% methanol, 200 μM peptide, CD 200-240 nm, mean of three deconvolution algorithms
[6] = from (5-(hydroxymethyl)thiazol-2-yl)-Val(D/L)-Ala-Ala-Ala-Ala-Tyr-NH2?, 25-membered ring, TfOH, MeNO2, 6.0 mM, 25.0 °C, 2 steps
[7] = from (5-(hydroxymethyl)thiazol-2-yl)-Val(D/L)-Ala-Ala-Tyr-NH2?, 19-membered ring, TfOH, MeNO2, 11.0 mM, 25.0 °C, 2 steps
[8] = from (5-(hydroxymethyl)thiazol-2-yl)-Val(D/L)-Gly-Tyr-NH2?, 16-membered ring, TfOH, MeNO2, 25.0 °C, 2 steps

Question: For `C[C@@H]1NC(=O)CNC2=NC=C(Cc3cc(ccc3O)C[C@@H](C(=O)NCC(=O)O)NC(=O)[C@H](C)NC(=O)[C@H](C)NC1=O)S2`, which ring closure, yield after HPLC ([1]; from (5-(hydroxymethyl)thiazol-2-yl)-Gly-Ala-Ala-Ala-Tyr-Gly-OtBu?, 22-membered ring, TfOH, NMM quench, nitromethane, 11.8 mM, 25.0 °C) is on record?
Answer: Its ring closure, yield after HPLC is 42%.

Question: Which results are given for `C[C@H](NC(=O)OCC1c2ccccc2-c2ccccc21)C(=O)N[C@@H](C)C(=O)NNC(=O)[C@@H](C)[C@@H](Cc1ccc(O)cc1)C(=O)N[C@@H](C)C(=O)N[C@@H](C)C(=O)NCC(=O)N[C@H]1Cc2ccc(O)c(c2)CC2=CN=C(NCCCNC(=O)[C@H](C)NC(=O)[C@H](C)NC(=O)[C@H](C)NC1=O)S2` [Example 91, C-terminal Macrocycle Peptide]?
Answer: unstructured conformation [2, 4]: 32%; α-helical structure [2, 4]: 23%; β-structure [2, 4]: 45%; unstructured conformation [2, 5]: 27%; α-helical conformation [2, 5]: 53%; β-structure (β-strand and β-turn conformation) [2, 5]: 22%

Question: Which ring closure, yield after HPLC ([1]; from (S)-N-(2-(2-((2R,3S,4S)-3,4-Dihydroxy-2-(4-methoxybenzyl)pyrrolidin-1-yl)-2-oxoethylamino)-2-oxoethyl)-2-(2-(5-(hydroxymethyl)thiazol-2-ylamino)acetamido)propanamide?, 22-membered ring) does the source give for `COc1ccc2cc1CC1=CN=C(NCC(=O)N[C@@H](C)C(=O)NCC(=O)NCC(=O)N3C[C@H](O)[C@@H](O)[C@H]3C2)S1` [Macrocycle Anisomycin-GGAG-Thia] here?
Answer: The ring closure, yield after HPLC was 53.2%.

Question: For `CC[C@H](C)[C@@H]1NC(=O)[C@@H](NC(=O)OCC2c3ccccc3-c3ccccc32)Cc2ccc(OC)c(c2)CC2=CN=C(NCC(=O)NC[C@@H](C(=O)O)NC(=O)[C@H](CCC(=O)OC)NC(=O)CNC1=O)S2` [Macrocycle], which ring closure, yield after HPLC ([1]; from (5S,8S,14S,17S)-8-((S)-sec-butyl)-1-(9H-fluoren-9-yl)-17-((2-((5-(hydroxymethyl)thiazol-2-yl)amino)acetamido)methyl)-14-(3-methoxy-3-oxopropyl)-5-(4-methoxybenzyl)-3,6,9,12,15-pentaoxo-2-oxa-4,7,10,13,16-pentaazaoctadecan-18-oic acid, 26-membered ring, TfOH, NMM quench, nitromethane, 5.57 mM, 25.0 °C) is on record?
Answer: The ring closure, yield after HPLC was 40.3%.

Question: For `C[C@@H]1NC(=O)CNC2=NC=C(Cc3cc(ccc3O)C[C@@H](C(=O)NCC(=O)O)NC(=O)[C@H](C)NC(=O)[C@H](C)NC1=O)S2` [Macrocycle], which ring closure, yield after HPLC ([1]; from (5-(hydroxymethyl)thiazol-2-yl)-Gly-Ala-Ala-Ala-Tyr-Gly-OtBu?, 22-membered ring, TfOH, NMM quench, nitroethane, 5.7 mM, 25.0 °C) is on record?
Answer: The ring closure, yield after HPLC was 35%.

Question: Which ring closure, yield after HPLC ([1]; from Boc-Tyr-Ala-Ala-Ala-NH-(CH2)3-NH-[5-(hydroxymethyl)thiazol-2-yl]?, 24-membered ring, TfOH, NMM quench, nitromethane, 9.9 mM) does the source give for `C[C@@H]1NC(=O)[C@H](C)NC(=O)[C@H](C)NC(=O)[C@@H](N)Cc2ccc(O)c(c2)CC2=CN=C(NCCCNC1=O)S2` [Macrocycle] here?
Answer: Its ring closure, yield after HPLC is 15.4%.

Question: Which ring closure, yield after HPLC ([1]; from (5-(hydroxymethyl)thiazol-2-yl)-Gly-Ala-Ala-Ala-Tyr-Gly-Ala-Ala-NH2?, 22-membered ring, TfOH, NMM quench, nitroethane/TfOH 1:1, 5.4 mM, 25.0 °C) does the source give for `C[C@H](NC(=O)[C@H](C)NC(=O)CNC(=O)[C@@H]1Cc2ccc(O)c(c2)CC2=CN=C(NCC(=O)N[C@@H](C)C(=O)N[C@@H](C)C(=O)N[C@@H](C)C(=O)N1)S2)C(N)=O` [Macrocycle] here?
Answer: Its ring closure, yield after HPLC is 62%.

Question: For `C[C@@H]1NC(=O)[C@H](C)NC(=O)[C@H](Cc2ccccc2)NC(=O)CNC2=NC=C(Cc3cc(ccc3O)C[C@@H](C(N)=O)NC1=O)S2` [Thia-G-F-A-A-Y—CONH2 (SEQ ID NO. 10) macrocycle], which ring closure, yield after HPLC ([1]; from (5-(hydroxymethyl)thiazol-2-yl)-Gly-Phe-Ala-Ala-Tyr-NH2?, 22-membered ring, TfOH, MeNO2, 11.5 mM, 25.0 °C, 2 steps) is on record?
Answer: The ring closure, yield after HPLC was 68.5%.

Question: With `CC(C)[C@@H]1NC2=NC=C(Cc3cc(ccc3O)C[C@@H](C(N)=O)NC(=O)[C@H](C)NC(=O)[C@H](C)NC(=O)[C@H](C)NC(=O)[C@H](C)NC1=O)S2` [Thia-V(d)AAAAY] as the compound, how does the ring closure, yield after HPLC [1, 6] read?
Answer: The ring closure, yield after HPLC was 22.3%.

Question: Which ring closure, yield after HPLC ([1]; from (5-(hydroxymethyl)thiazol-2-yl)-dVal-Ala-Ala-Gly-Tyr-NH2?, 22-membered ring, TfOH, MeNO2, 6.83 mM, 25.0 °C, 2 steps) does the source give for `CC(C)[C@H]1NC2=NC=C(Cc3cc(ccc3O)C[C@@H](C(N)=O)NC(=O)CNC(=O)[C@H](C)NC(=O)[C@H](C)NC1=O)S2` [Thia-V(d)AAGY Macrocycle] here?
Answer: Its ring closure, yield after HPLC is 38.7%.

Question: With `CC(C)[C@H]1NC2=NC=C(Cc3cc(ccc3O)C[C@@H](C(N)=O)NC(=O)[C@H](C)NC(=O)[C@H](C)NC1=O)S2` [Thia-V(d)AAY] as the compound, how does the ring closure, yield after HPLC [1, 7] read?
Answer: The ring closure, yield after HPLC was 16.4%.

Question: Which ring closure, yield after HPLC [1, 8] does the source give for `CC(C)[C@H]1NC2=NC=C(Cc3cc(ccc3O)C[C@@H](C(N)=O)NC(=O)CNC1=O)S2` [Thia-V(d)GY] here?
Answer: Its ring closure, yield after HPLC is 22%.

Question: Which ring closure, yield after HPLC [1, 6] does the source give for `CC(C)[C@@H]1NC2=NC=C(Cc3cc(ccc3O)C[C@@H](C(N)=O)NC(=O)[C@H](C)NC(=O)[C@H](C)NC(=O)[C@H](C)NC(=O)[C@H](C)NC1=O)S2` [Thia-V(l)AAAAY (SEQ ID NO. 12)] here?
Answer: Its ring closure, yield after HPLC is 35.2%.

Question: With `CC(C)[C@@H]1NC2=NC=C(Cc3cc(ccc3O)C[C@@H](C(N)=O)NC(=O)CNC(=O)[C@H](C)NC(=O)[C@H](C)NC1=O)S2` [Thia-V(l)AAGY (SEQ ID NO. 13) Macrocycle] as the compound, how does the ring closure, yield after HPLC ([1]; from (5-(hydroxymethyl)thiazol-2-yl)-Val-Ala-Ala-Gly-Tyr-NH2?, 22-membered ring, TfOH, MeNO2, 6.45 mM, 25.0 °C, 2 steps) read?
Answer: Its ring closure, yield after HPLC is 52.7%.

Question: Which ring closure, yield after HPLC [1, 7] does the source give for `CC(C)[C@H]1NC2=NC=C(Cc3cc(ccc3O)C[C@@H](C(N)=O)NC(=O)[C@H](C)NC(=O)[C@H](C)NC1=O)S2` [Thia-V(l)AAY (SEQ ID NO. 11)] here?
Answer: The ring closure, yield after HPLC was 11%.

Question: With `CC(C)[C@H]1NC2=NC=C(Cc3cc(ccc3O)C[C@@H](C(N)=O)NC(=O)CNC1=O)S2` [Thia-V(l)GY] as the compound, how does the ring closure, yield after HPLC [1, 8] read?
Answer: The ring closure, yield after HPLC was 19%.

Question: Which ring closure, yield after HPLC ([1]; from (5-(hydroxymethyl)thiazol-2-yl)-Gly-Ala-Ala-Tyr-NH2?, 19-membered ring, TfOH, MeNO2, 14.7 mM, 25.0 °C, 2 steps) does the source give for `C[C@@H]1NC(=O)CNC2=NC=C(Cc3cc(ccc3O)C[C@@H](C(N)=O)NC(=O)[C@H](C)NC1=O)S2` [“Thia-G-A-A-Y” (SEQ ID NO. 9) Macrocycle] here?
Answer: The ring closure, yield after HPLC was 70.2%.

Question: With `C[C@@H]1NC(=O)CNC2=NC=C(Cc3cc(ccc3O)C[C@@H](C(N)=O)NC1=O)S2` [“Thia-G-A-Y” Macrocycle] as the compound, how does the ring closure, yield after HPLC ([1]; from (5-(hydroxymethyl)thiazol-2-yl)-Gly-Ala-Tyr-NH2, 16-membered ring, TfOH, MeNO2, 7.0 mM, 25.0 °C) read?
Answer: The ring closure, yield after HPLC was 56%.

Question: Which ring closure, conversion [3] does the source give for “(5-(hydroxymethyl)thiazol-2-yl)-Gly-Gly-Tyr-NH2?” here?
Answer: Its ring closure, conversion is 60%.
